Data published in ChEMBL document CHEMBL1138041, “Parallel artificial membrane permeability assay: a new membrane for the fast prediction of passive human skin permeability” (J Med Chem, 2006).

Assays:
[1] = species: Homo sapiens
[2] = not given; remark: listed apart in the source
[3] = physchem
[4] = not given; remark: listed apart in the source
[5] = not given; remark: listed apart in the source

SMILES | log Kp ([1]; in vivo) | log Pe | log Pe [2] | pKa [3] | other results
CN1C(C(=O)Nc2ccccn2)=C(O)c2ccccc2S1(=O)=O [PIROXICAM] | -6.02 cm/s | -4.35 cm/s | – | – | –
Oc1cccc(O)c1 [RESORCINOL] | – | -5.62 cm/s | -4.66 cm/s | 9.21 | –
COc1ccc2c(c1)c(CC(=O)O)c(C)n2C(=O)c1ccc(Cl)cc1 [INDOMETHACIN] | – | -4.2 cm/s | – | – | log Kp [1]: -5.39 cm/s
Oc1ccc(Cl)cc1 [PARACHLOROPHENOL] | -5 cm/s | -4.1 cm/s | – | 9.26 | –
Nc1cc([N+](=O)[O-])ccc1O [2-AMINO-4-NITROPHENOL] | -6.62 cm/s | -4.84 cm/s | -3.96 cm/s | 6.7 | –
CCC1(c2ccccc2)C(=O)NC(=O)NC1=O [PHENOBARBITAL] | – | -5.15 cm/s | -4.16 cm/s | 7.49 | log Kp [1]: -6.9 cm/s
CN1CCC[C@H]1c1cccnc1 [NICOTINE] | – | – | – | 8.08 | log Kp [1]: -5.26 cm/s; log Kp ([4]; not told): -4.29 cm/s; log Pe ([5]; not told): -4.86 cm/s; log Pe ([2]; not told): -4.23 cm/s; log Pe (not told): -4.58 cm/s
O=C(OCc1ccccc1)c1cccnc1 [BENZYL NICOTINATE] | -5.35 cm/s | -4.26 cm/s | -4.35 cm/s | 3.94 | log Pe [5]: -4.18 cm/s
CCNc1nc(Cl)nc(NC(C)C)n1 [ATRAZINE] | -5.56 cm/s | -4.21 cm/s | – | < 2 | –
c1ccc2cnccc2c1 [ISOQUINOLINE] | -5.33 cm/s | -4.05 cm/s | – | 5.37 | –
Cc1cc(=O)n(-c2ccccc2)n1C [ANTIPYRINE] | -7.74 cm/s | -6.2 cm/s | -5.4 cm/s | – | –
Cc1ccc(C(C)C)c(O)c1 [THYMOL] | -4.83 cm/s | -4.34 cm/s | -4.23 cm/s | 10.6 | log Kp [4]: -3.68 cm/s; log Pe [5]: -4.11 cm/s
Cn1c(=O)c2c(ncn2C)n(C)c1=O [CAFFEINE] | – | – | – | – | log Kp [1]: -7.56 cm/s
Oc1ccc2ccccc2c1 [BETANAPHTHOL] | – | – | – | 9.4 | log Kp [1]: -5.11 cm/s; log Kp ([4]; not told): -4.08 cm/s; log Pe ([5]; not told): -4.35 cm/s; log Pe ([2]; not told): -4.41 cm/s; log Pe (not told): -4.19 cm/s
O=[N+]([O-])c1ccc(O)cc1 [P-NITROPHENOL] | -5.81 cm/s | -4.33 cm/s | -4.09 cm/s | 6.9 | log Kp [4]: -5.08 cm/s; log Pe [5]: -5.24 cm/s
COC(=O)c1cccnc1 [METHYL NICOTINATE] | -6.04 cm/s | -4.32 cm/s | – | 3.84 | –
O=C(O)Cc1ccccc1Nc1c(Cl)cccc1Cl [DICLOFENAC] | -5.3 cm/s | -4.33 cm/s | – | – | –
O=C(O)c1ccccc1O [SALICYLIC ACID] | – | – | – | – | log Kp ([4]; not told): -4.7 cm/s; log Pe ([5]; not told): -4.74 cm/s; log Pe ([2]; not told): -3.98 cm/s; log Pe (not told): -4.16 cm/s
CC(C(=O)O)c1cccc(C(=O)c2ccccc2)c1 (stereo unspecified) [KETOPROFEN] | -4.7 cm/s | – | – | – | –
CC(=O)[C@H]1CC[C@H]2[C@@H]3CCC4=CC(=O)CC[C@]4(C)[C@H]3CC[C@]12C [PROGESTERONE] | -5.08 cm/s | – | – | – | log Pe ([5]; not told): -4.31 cm/s; log Pe ([2]; not told): -4.63 cm/s; log Pe (not told): -4.56 cm/s
Oc1ccccc1 [PHENOL] | – | – | – | – | log Kp [1]: -5.54 cm/s; log Kp ([4]; not told): -4.45 cm/s; log Pe ([5]; not told): -4.53 cm/s; log Pe ([2]; not told): -4 cm/s; log Pe (not told): -4.14 cm/s
CCc1ccc(O)cc1 | -5.01 cm/s | -4.05 cm/s | – | 10.2 | –
CN[C@@H](C)[C@H](O)c1ccccc1 [EPHEDRINE] | -5.75 cm/s | -4.82 cm/s | – | – | –
